Experimental data taken from patent publication US11766470B2, “Manufacture, formulation and dosing of apraglutide” (VectivBio AG, priority 2020, dated 2023).
Square brackets hold non-standard residues; d marks the D form. Peptide text beside a SMILES is read from it. ξ: configuration not given here. Ile(3ξ) = CCC(C)[C@H](N)C(=O)O; Thr(3ξ) = CC(O)[C@H](N)C(=O)O; Nle = CCCC[C@H](N)C(=O)O

System: patients with SBS-IF
Assay: Phase 2 placebo-controlled crossover trial in SBS-IF patients (Example 5): urine output, urine sodium, PS volume, oral fluid intake, hydration parameters, plasma L-citrulline, body composition
Format: in vivo, human
Conditions: for Fluid composite effect (increase urine production + reduction PS volume + reduction oral fluid intake): post-hoc
Procedure: The following non-limiting example describes results from a Phase 2 clinical trial in which subjects with SBS-IF were treated with the apraglutide formulations of the present disclosure. This Phase 2 trial investigated the safety and efficacy of 5 and 10 mg apraglutide in patients with SBS-IF.
Eight adult patients with SBS-IF were treated with apraglutide compositions of the present disclosure according to Table 6. Briefly, patients with SBS-IF were administered 5 mg apraglutide of the present disclosure or placebo once a week for four weeks. The patients were then administered 10 mg apraglutide of the present disclosure once a week for four weeks. Additionally, there was a washout period of 6-10 weeks between treatments.
The trial described in Example 5 was a double-blind, crossover, randomized, placebo-controlled, phase 2 trial followed by an additional treatment period in an open-label regimen. Eight adult patients (aged ≥18 to ≤80 years) with SBS-IF were enrolled in the trial. Patient eligibility was assessed during a screening visit. The main inclusion criteria were: Patients with SBS secondary to surgical resection of the small bowel with a jejuno- or ileostomy, at least 6 months since last bowel resection, a fecal output of at least 1500 g/day as recorded within the last 18 months, and PS-infusions≥3 times per week for ≥12 months according to the patient's medical record. Patients were excluded, if they had clinical signs of activity in inflammatory bowel disease, a history of cancer within ≤5 years or an inadequate hepatic, kidney, or heart function. Patients were also excluded, if they had received native GLP-2 or a GLP-2 analogue within the last 3 months.
The procedures during each treatment period were consistent.
Efficacy assessments were performed for each treatment period of 29 days. Patients received a paper diary for recording PS volume administration, urine collections and oral fluid intakes at specific time points. Patients performed home 48-hour urine collections at baseline (day −2 to 1), immediately after first treatment injection (day 1 to 3), and at the end of the treatment period (day 27-29, […] after the fourth administration of the trial drug). Urine was collected by the patient in a urine container with volume markings and 48-hour urine volumes were reported in the diary. After completing the 48-hour collection, patients transferred approximately 100 mL of urine from the container to a sample which was delivered at the next patient visit. The amount of sodium excreted per 48 hours was then calculated as the concentration of sodium in the sample multiplied by the total volume of urine collected. During each urine collection, weekly PS volume and content and daily oral fluid intake were kept constant. Since they were kept constant, increases in urine volume were a sign of increased fluid absorption. […] Patients were to adhere to their drinking menu during each urine collection and the concomitant 48-hour oral fluid intake was reported in the diary during each urine collection.
On day 20-22, patients were informed to record their spontaneous oral fluid intake during 48 hours. This measurement was included to investigate whether increased intestinal absorption was associated with a decrease in their spontaneous oral fluid intake.
Between day 4 and 24, PS volume reductions were allowed if deemed clinically necessary by the investigator. […] PS volume reductions were assessed during day 20-22. Patients returned to their baseline PS volume and content during the end of the treatment urine collection (day 27-29). Concomitant medications including proton-pump inhibitors, loperamide, and opiates were kept unchanged and stable throughout the trial. If necessary, adjustments could be made in the drinking menu and prescribed PS volume and content between treatment periods based on discussions between the patient and the investigator.
Body weight was measured using a levelled platform scale. […]

[1] = 5 mg vs placebo, Part A+B, end of treatment
[2] = 5 mg vs placebo, Part A, day 1-3 after first injection
[3] = 5 mg vs placebo, Part A, day 20-22
[4] = 5 mg vs placebo, Part A, day 27-29
[5] = 5 mg vs placebo, Part A, end of treatment
[6] = 10 mg vs placebo, Part A+B, day 1-3 after first injection
[7] = 10 mg vs placebo, Part A+B, day 20-22
[8] = 10 mg vs placebo, Part A+B, day 27-29
[9] = 10 mg vs placebo, Part A+B, end of treatment

## CCCC[C@H](NC(=O)[C@H](CCC(=O)O)NC(=O)[C@H](CC(=O)O)NC(=O)[C@H](CO)NC(=O)[C@H](Cc1ccccc1)NC(=O)[C@H](CO)NC(=O)CNC(=O)[C@H](CC(=O)O)NC(=O)CNC(=O)[C@@H](N)Cc1c[nH]cn1)C(=O)N[C@H](Cc1ccccc1)C(=O)N[C@H](C(=O)N[C@H](C(=O)N[C@@H](CC(C)C)C(=O)N[C@@H](CC(=O)O)C(=O)N[C@@H](CC(C)C)C(=O)N[C@@H](CC(C)C)C(=O)N[C@@H](C)C(=O)N[C@@H](C)C(=O)N[C@@H](CCCNC(=N)N)C(=O)N[C@@H](CC(=O)O)C(=O)N[C@@H](Cc1ccccc1)C(=O)N[C@H](C(=O)N[C@@H](CC(N)=O)C(=O)N[C@@H](Cc1c[nH]c2ccccc12)C(=O)N[C@@H](CC(C)C)C(=O)N[C@H](C(=O)N[C@@H](CCC(N)=O)C(=O)N[C@H](C(=O)N[C@@H](CCCCN)C(=O)N[C@H](C(=O)N[C@H](C(=O)N[C@@H](CC(=O)O)C(N)=O)C(C)O)C(C)CC)C(C)O)C(C)CC)C(C)CC)C(C)CC)C(C)O (stereo partly drawn) [apraglutide, L-histidyl-glycyl-L-aspartyl-glycyl-L-seryl-L-phenylalanyl-L-seryl-L-aspartyl-L-glutamyl-L-norleucyl-D-phenylalanyl-L-threonyl-Lisoleucyl-L-leucyl-L-aspartyl-L-leucyl-L-leucyl-L-alanyl-L-alanyl-L-arginyl-L-aspartyl-L-phenylalanyl-L-isoleucyl-L-asparaginyl-Ltryptophanyl-L-leucyl-L-isoleucyl-L-glutaminyl-L-threonyl-L-lysyl-L-isoleucyl-L-threonyl-Laspartic acid amide] (H-HGDGSFSDE[Nle][dF][Thr(3ξ)][Ile(3ξ)]LDLLAARDF[Ile(3ξ)]NWL[Ile(3ξ)]Q[Thr(3ξ)]K[Ile(3ξ)][Thr(3ξ)]D-NH2)
[1]
  Relative body weight, adjusted mean change from baseline: 3 (0 to 6); %
  Relative bone mineral content, adjusted mean change from baseline: 0 (−3 to 3); %
  Relative fat body mass, adjusted mean change from baseline: 10 (1 to 18); %
  Relative lean body mass, adjusted mean change from baseline: 2 (−5 to 9); %
  Relative plasma L-citrulline, adjusted mean change from baseline: 65 (15 to 115); %
  Urea, adjusted mean change from baseline: −0.9 (−2.4 to 0.6); mmol/L
[2]
  Absolute urine output, adjusted mean change from baseline: −48 (−696 to 601); mL/day
  Relative urine output, adjusted mean change from baseline: 5 (−38 to 48); %
  Urine sodium excretion (%), adjusted mean change from baseline: 64 (−306 to 433); %
  Urine sodium excretion, adjusted mean change from baseline: 3 (−146 to 152); mmol/day
[3]
  PS volume, adjusted mean change from baseline: −94 (−344 to 156); P = .356 mL/day
  Relative PS volume, adjusted mean change from baseline: −13 (−41 to 15); P = .276%
  Relative oral fluid intake, adjusted mean change from baseline: −9 (−18 to 1); P = .068%
[4]
  Absolute urine output, adjusted mean change from baseline: 714 mL/day
  Relative urine output, adjusted mean change from baseline: 49%
  Urine sodium excretion (%), adjusted mean change from baseline: 189 (−350 to 729); P = .270%
  Urine sodium excretion, adjusted mean change from baseline: 66 (−69 to 201); P = .171 mmol/day
[5]
  Body weight, adjusted mean change from baseline: 1.9 (−0.8 to 4.5); kg
  Bone mineral content, adjusted mean change from baseline: −4 (−132 to 123); g
  Fat body mass, adjusted mean change from baseline: 1.74 (−0.36 to 3.83); kg
  Lean body mass, adjusted mean change from baseline: 0.49 (−4.65 to 5.64); kg
  Plasma L-citrulline, adjusted mean change from baseline: 17.7 (−6.3 to 41.7); μmol/L
  Relative body weight, adjusted mean change from baseline: 3 (−1 to 7); %
  Relative bone mineral content, adjusted mean change from baseline: 0 (−6 to 6); %
  Relative fat body mass, adjusted mean change from baseline: 9 (−5 to 24); %
  Relative lean body mass, adjusted mean change from baseline: 2 (−11 to 15); %
  Relative plasma L-citrulline, adjusted mean change from baseline: 66 (−13 to 145); %
5 mg vs placebo, Part A+B
  Fluid composite effect (increase urine production + reduction PS volume + reduction oral fluid intake): 1,036 mL/day
[6]
  Absolute urine output, adjusted mean change from baseline: −64 (−500 to 372); mL/day
  Relative urine output, adjusted mean change from baseline: −6 (−37 to 24); %
  Urine sodium excretion (%), adjusted mean change from baseline: 22 ( −75 to 119); %
  Urine sodium excretion, adjusted mean change from baseline: 3 (−17 to 22); mmol/day
[7]
  Relative PS volume, adjusted mean change from baseline: −28 (−51 to −4); %
  Relative oral fluid intake, adjusted mean change from baseline: −15 (−25 to −5); %
[8]
  Absolute urine output, adjusted mean change from baseline: 795 (195 to 1,394); mL/day
  Relative urine output, adjusted mean change from baseline: 34 (−4 to 71); %
  Urine sodium excretion (%), adjusted mean change from baseline: 432 ( −87 to 951); %
  Urine sodium excretion, adjusted mean change from baseline: 88 (20 to 156); mmol/day
[9]
  Albumin, adjusted mean change from baseline: 1.0 (−0.9 to 2.9); g/L
  Body weight, adjusted mean change from baseline: 1.3 (−0.6 to 3.2); kg
  Bone mineral content, adjusted mean change from baseline: 8 (−64 to 81); g
  CO2 total, adjusted mean change from baseline: 1.3 (−1.1 to 3.7); mmol/L
  Creatinine, adjusted mean change from baseline: −5.1 (−22.1 to 11.9); umol/L
  Fat body mass, adjusted mean change from baseline: 0.33 (−1.20 to 1.85); kg
  Hematocrit, adjusted mean change from baseline: 0.2 (−0.7 to 1.0); vol/fr
  Lean body mass, adjusted mean change from baseline: 0.76 (−2.47 to 3.99); kg
  Plasma L-citrulline, adjusted mean change from baseline: 14.0 (−2.3 to 30.3); μmol/L
  Protein, adjusted mean change from baseline: −0.7 (−4.7 to 3.3); g/L
  Relative body weight, adjusted mean change from baseline: 2 (−1 to 5); %
  Relative bone mineral content, adjusted mean change from baseline: 0 (−3 to 3); %
  Relative fat body mass, adjusted mean change from baseline: 2 (−7 to 11); %
  Relative lean body mass, adjusted mean change from baseline: 2 (−6 to 9); %
  Relative plasma L-citrulline, adjusted mean change from baseline: 42 (−10 to 94); %
  Urea, adjusted mean change from baseline: −0.6 (−2.2 to 1.0); mmol/L
10 mg vs placebo, Part A+B
  Fluid composite effect (increase urine production + reduction PS volume + reduction oral fluid intake): 1,630 mL/day
